Entries after “also recorded” stand apart in the source; their conditions may differ. Where a name gives a salt, the structure may show the parent alone.

Assay [1] concerns human neural stem cells (hNSCs). The assay is described as follows: Neuronal differentiation of human neural stem cells (TUJ-1 staining). The class given is cell-based. Particulars: for EC50: agent alone, data as % of neuronal positive control, basal media subtracted; for EC50 / effect on neuronal differentiation (in words): hNSC; for effect on neuronal differentiation (in words): TUJ-1. From the text: Mitogen-free test media with a positive control was used for neuronal differentiation, and basal media without growth factors served as a negative control.
Mitogen-free test media with a positive control for neuronal differentiation was used, and basal media without growth factors served as a negative control.
(§1) Human neural stem cells (hNSCs) were isolated and grown in monolayer culture, plated, treated with varying concentrations of buspirone in the presence or absence of the melatonin agonist melatonin, and stained with TUJ-1 antibody for the detection of neuronal differentiation or GFAP antibody for the detection of astrocyte differentiation, as described above. Mitogen-free test media with a positive control for neuronal differentiation was used along with basal media without growth factors as a negative control.
Human neural stem cells (hNSCs) were isolated and grown in monolayer culture, plated, treated with varying concentrations of a 5-HT3 antagonist and stained with TUJ-1 antibody, as described above. Mitogen-free test media with a positive control for neuronal differentiation was used along with basal media without growth factors as a negative control.
Human neural stem cells (hNSCs) were isolated and grown in monolayer culture, plated, treated with varying concentrations of a 5-HT4 agonist and stained with TUJ-1 antibody, as described above. Mitogen-free test media with a positive control for neuronal differentiation was used along with basal media without growth factors as a negative control.
The presence of synergy was determined by use of a combination index (CI). […] The CI is a quantitative measure of the nature of drug interactions, comparing the EC50's of two compounds, when each is assayed alone, to the EC50 of each compound when assayed in combination. The combination index (CI) is equal to the following formula: […]
where C1 and C2 are the concentrations of a first and a second compound, respectively, resulting in 50% activity in neuronal differentiation when assayed in combination; and IC1 and IC2 are the concentrations of each compound resulting in 50% activity when assayed independently.

For assay [2] the test system is unchanged. The experiment in a line: Astrocyte differentiation of hNSCs (GFAP staining). The class given is cell-based. The settings on record: for effect on astrocyte differentiation (in words): GFAP; for EC50: Homo sapiens, Neural stem cell. Here is the method:
Experiments were carried out as described in Example 1, except the positive control for astrocyte differentiation contained mitogen-free test media with a positive control, and cells were stained with GFAP antibody.
Experiments were carried out as described in Example 2, except the positive control for astrocyte differentiation contained mitogen-free test media with a different positive control.
as §1

Assay [3] concerns KA, AMPA, and NMDA iGlu receptors. Particulars: cited from earlier work.
In a further assay the target is human mGlu3 (Homo sapiens, UniProt Q14832). The settings on record: in vitro; low nanomolar range; read-out: EC50 against human mGlu3 receptors; cited from earlier work.
The target in the next assay is human mGlu2 (Homo sapiens, UniProt Q14416). Particulars: in vitro; low nanomolar range; read-out: EC50 against human mGlu2 receptors; cited from earlier work.
Assay [4] has as its system human neural stem cells (hNSC). The assay is described as follows: Immunohistochemistry with neuronal and astrocyte markers (TUJ-1, GFAP, Hoechst 33342). The class given is cell-based. Particulars: incubated with 30 μM. Here is the method:
Immunohistochemistry was carried out as described above using TUJ-1 as a neuronal cell marker and GFAP as an astrocyte marker. The results are shown in FIG. […] Immunohistochemistry was carried out as described in Example 3.

Assay [5] has as its system Male F344 rats. The assay is described as follows: Novel Object Recognition (NOR) cognition assay. The class given is in vivo, rat. The settings on record: fluoxetine 5 and 10 mg/kg p.o., 1x per day for 28 days. An excerpt:
The apparatus consisted of an open field (45×45×50 cm high) made of polycarbonate. Triplicate copies were used of the objects to be discriminated. Care was taken to ensure that the pair of objects tested were made from the same material so that they could not be distinguished readily by olfactory cues although they had very different appearances.
Each test session consisted of two phases. In the initial familiarization phase, two identical objects (A1 and A2) were placed in the far corners of the box arena. A rat was then placed in the middle of the arena and allowed 15 minutes to explore both objects. Exploration of an object was defined as directing the nose to the object at a distance of less than 2 cm and/or touching it with the nose. After a delay of 48-hours the rat was re-introduced to the arena (“test phase”). The box now contained a third identical copy of the familiar object (A3) and a new object (B). These were placed in the same locations as the sample stimuli, whereby the position (left or right) of the novel object in the test phase was balanced between rats. For half the rats, object A was the sample and object B was the novel alternative. The test phase was 15 minutes in duration, with the first 30 seconds of object interaction used to determine preference scores. Any animal with less than 15 seconds of object exploration were excluded from analysis.

In assay [6] the test system is Male F344 rats. The experiment in a line: Novelty suppressed feeding (NSF) depression assay. The class given is in vivo, rat. Particulars: 1x per day for 21 days. How it is done: Twenty-four hours prior to behavioral testing, all food is removed from the home cage. At the time of testing a single pellet is placed in the center of a novel arena. Animals are placed in the corner of the arena and latency to eat the pellet is recorded. […] Animals receive compound daily for 21 days and testing is performed on day 21. A decreased latency to eat the food pellet is indicative of both neurogenesis and antidepressant activity.
Twenty-four hours prior to behavioral testing, all food is removed from the home cage. At the time of testing a single pellet is placed in the center of a novel arena. Animals are placed in the corner of the arena and the latency (in time) to eat the pellet is recorded. […] Animals receive compound daily for 21 days and testing is performed on day 21. A decreased latency to eat the food pellet is indicative of both neurogenesis and antidepressant activity.

In assay [7] the test system is granule cell layer of the dentate gyrus. The experiment in a line: In vivo neurogenesis (BrdU positive cell counts). More on the design: species or system rat. The settings on record: 0.5 mg/kg buspirone, 3.0 mg/kg melatonin or both, i.p., 1x per day for 28 days. Here is the method:
BrdU was administered once daily between days 9 and 14 (100 mg/kg/day, i.p., n=12 per dose group). […] Data are presented as percent change in BrdU positive cells per cubic mm dentate gyrus.

Where [8] appears, read: agent alone, hNSC, % of astrocyte positive control, basal media subtracted.

Sequence of human mGlu2 (Q14416 19-872): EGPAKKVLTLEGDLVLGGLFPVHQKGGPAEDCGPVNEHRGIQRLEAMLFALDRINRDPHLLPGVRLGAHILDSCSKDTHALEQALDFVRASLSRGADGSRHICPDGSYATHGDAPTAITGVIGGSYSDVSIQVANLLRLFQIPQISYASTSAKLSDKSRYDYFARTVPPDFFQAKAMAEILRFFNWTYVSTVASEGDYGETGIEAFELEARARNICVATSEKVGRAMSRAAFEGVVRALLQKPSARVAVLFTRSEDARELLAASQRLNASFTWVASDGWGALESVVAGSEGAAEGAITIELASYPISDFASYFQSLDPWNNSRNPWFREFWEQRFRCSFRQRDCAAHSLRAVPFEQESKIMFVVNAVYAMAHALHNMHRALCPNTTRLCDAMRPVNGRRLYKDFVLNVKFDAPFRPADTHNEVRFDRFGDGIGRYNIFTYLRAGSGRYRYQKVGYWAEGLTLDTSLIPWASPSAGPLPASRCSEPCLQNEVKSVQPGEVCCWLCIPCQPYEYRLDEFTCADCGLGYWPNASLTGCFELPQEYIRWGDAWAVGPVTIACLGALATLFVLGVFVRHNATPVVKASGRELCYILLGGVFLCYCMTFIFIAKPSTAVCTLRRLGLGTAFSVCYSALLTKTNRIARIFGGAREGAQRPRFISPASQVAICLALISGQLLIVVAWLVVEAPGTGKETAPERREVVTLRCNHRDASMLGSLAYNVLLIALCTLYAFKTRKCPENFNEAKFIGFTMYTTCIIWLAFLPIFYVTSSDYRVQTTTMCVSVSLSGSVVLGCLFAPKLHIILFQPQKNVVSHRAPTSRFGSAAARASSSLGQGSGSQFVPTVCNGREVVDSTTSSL
Sequence of human mGlu3 (Q14832 23-879): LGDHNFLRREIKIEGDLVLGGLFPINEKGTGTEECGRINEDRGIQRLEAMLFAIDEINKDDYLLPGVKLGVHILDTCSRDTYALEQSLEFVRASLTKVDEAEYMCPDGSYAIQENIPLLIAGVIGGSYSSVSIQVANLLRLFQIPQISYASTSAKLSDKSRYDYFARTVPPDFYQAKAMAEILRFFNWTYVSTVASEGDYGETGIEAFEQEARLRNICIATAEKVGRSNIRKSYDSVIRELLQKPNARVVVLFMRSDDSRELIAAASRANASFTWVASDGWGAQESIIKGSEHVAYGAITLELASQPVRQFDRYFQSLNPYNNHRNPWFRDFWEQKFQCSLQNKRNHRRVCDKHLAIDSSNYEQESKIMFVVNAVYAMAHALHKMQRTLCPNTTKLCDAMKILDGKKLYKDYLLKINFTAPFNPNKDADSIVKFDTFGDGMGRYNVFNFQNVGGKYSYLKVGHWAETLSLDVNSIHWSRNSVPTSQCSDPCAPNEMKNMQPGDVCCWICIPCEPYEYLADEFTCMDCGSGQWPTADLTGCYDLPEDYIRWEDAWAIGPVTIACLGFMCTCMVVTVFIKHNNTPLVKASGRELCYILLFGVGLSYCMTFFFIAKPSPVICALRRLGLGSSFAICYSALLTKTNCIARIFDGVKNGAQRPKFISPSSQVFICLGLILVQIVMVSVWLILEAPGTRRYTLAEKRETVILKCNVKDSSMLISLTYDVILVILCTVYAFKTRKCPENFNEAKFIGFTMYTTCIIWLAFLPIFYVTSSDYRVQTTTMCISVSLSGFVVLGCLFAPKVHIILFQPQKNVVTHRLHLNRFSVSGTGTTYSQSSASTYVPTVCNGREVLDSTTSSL

Consider `N[C@@H](Cc1c[nH]c2ccc(O)cc12)C(=O)O` [5-HTP, 5-hydroxytryptophan], for which the EC50 (usually the concentration at which the effect is half-maximal) in [1] (Homo sapiens, Neural stem cell) was determined as 12 µM. The “effect on neuronal differentiation (in words)” value in assay [1] is on record as “weakly promoted neuronal differentiation”. Also, in assay [2] (setting [8]), the “EC50, astrocyte differentiation” value was “undeterminable”. Also, the “effect on astrocyte differentiation (in words)” value in assay [2] (hNSC) is on record as “no significant increase in astrocyte differentiation above basal media values”.
On to `N[C@](CC1c2ccccc2Oc2ccccc21)(C(=O)O)[C@H]1C[C@@H]1C(=O)O` [LY341495, (2S)-2-amino-2-(1S,2S-2-carboxycycloprop-1-yl)-3-(xanth-9-yl) propanoic acid], for which the “activity against KA, AMPA, and NMDA iGlu receptors” value in assay [3] is “substantially inactive”.
Turning to `N[C@@]1(C(=O)O)CO[C@H]2[C@H](C(=O)O)[C@H]21` [LY379268, (−)-2-oxa-4-aminobicyclohexane-4,6-dicarboxylic acid], the EC50 at human mGlu3 and on human mGlu2 was less than 0.01 µM throughout.
`COc1ccc2cccc(CCNC(C)=O)c2c1` [agomelatine]: in [1] (Homo sapiens, Neural stem cell), the EC50 amounted to 8.7 µM. The “effect on neuronal differentiation (in words)” value in [1] is recorded as “promotes differentiation of neural stem cells into neurons”.
For `CN1C(=O)COc2c(C(=O)NC3CN4CCC3CC4)cc(Cl)cc21` (centres unmarked) [azasetron], the “lineage of hNSC monolayer in immunofluorescent image” value in assay [4] is reported as “primarily of a neuronal lineage”. In addition, the results for the EC50 in [1] and in [2] (setting [8]) were 5.8 µM and more than 31.6 µM, respectively. Also, the “effect on neuronal differentiation (in words)” value in assay [1] is “promote differentiation of neural stem cells into neurons”; in assay [1] (listed as Azasetron), “significantly promoted neuronal differentiation”. In assay [2] (hNSC), the “effect on astrocyte differentiation (in words)” value is “did not show a significant effect on astrocyte differentiation”. The maximum astrocyte differentiation in assay [2] (percent of positive control, agent alone or in combination) came to 33%.
Consider `NCC(CC(=O)O)c1ccc(Cl)cc1` (centres unmarked) [baclofen], for which the concentration for a half-maximal effect (EC50) was 3.9 µM in assay [1] (Homo sapiens, Neural stem cell) and more than 31.6 µM in assay [2] (setting [8]).
In the case of `C[C@H](CS)C(=O)N1CCC[C@H]1C(=O)O` [captopril], the EC50 in [1] (Homo sapiens, Neural stem cell) came out at 5.4 µM.
Same read-out and setting: the result for `NC(=O)N1c2ccccc2C=Cc2ccccc21` [carbemazepine] reads 15.7 µM.
Turning to `COc1cc(N)c(Cl)cc1C(=O)NC1CCN(CCCOc2ccc(F)cc2)CC1OC` (centres unmarked) [cisapride], the concentration giving a half-maximal response (EC50) in assay [1] (Homo sapiens, Neural stem cell) was determined as 7.9 µM. In assay [1], the “effect on neuronal differentiation (in words)” value is recorded as “promote differentiation of neural stem cells into neurons”.
Regarding `NCCc1ccc(O)c(O)c1` [dopamine, 4-(2-aminoethyl)benzene-1,2-diol], in assay [1] (dopamine alone or with 10 μM or 30 μM 5-HTP), the “neuronal differentiation, dopamine dose response” value is “did not significantly enhance neuronal differentiation”.
On to `CNCCC(Oc1ccc(C(F)(F)F)cc1)c1ccccc1` (centres unmarked) [fluoxetine], for which, in the assay with Male F344 rats [5], the “preference for the novel object (visits, time spent)” value is “increased both the number of visits to, and the amount of time spent with, the novel object; also recorded: dose dependent increase in preference for the novel object”. Moreover, in the assay on Male F344 rats [6] (fluoxetine 10.0 mg/kg p.o.), the “latency to eat the food pellet” value was “reduced the latency to eat the food pellet”.
Consider `Nc1nc2ncc(CNc3ccc(C(=O)N[C@@H](CCC(=O)O)C(=O)O)cc3)nc2c(=O)[nH]1` [folic acid], for which the EC50 in assay [1] (Homo sapiens, Neural stem cell) is 4.5 µM.
The same measure, in the same setting: then `NCC1(CC(=O)O)CCCCC1` [gabapentin], with 11.5 µM.
On to `CN1C2CCCC1CC(NC(=O)c1nn(C)c3ccccc13)C2` (centres unmarked) [granisetron], for which the “effect on neuronal differentiation (in words)” value in assay [1] is “promote differentiation of neural stem cells into neurons”.
With `CC(C)C(=O)c1c(C(C)C)nn2ccccc12` [ibudilast], the EC50 in assay [1] (Homo sapiens, Neural stem cell) stood at 0.72 µM.
Regarding `COc1ccc2[nH]cc(CCNC(C)=O)c2c1` [melatonin], the EC50 in assay [1] (Homo sapiens, Neural stem cell) was more than 31.6 µM; in assay [2] (setting [8]), more than 31.6 µM. In addition, the “latency to eat the food pellet (percent baseline)” value with Male F344 rats [6] (0.5 mg/kg buspirone, 3.0 mg/kg melatonin or both, i.p.) was “did not significantly reduce the latency to eat the food pellet”. Besides, the “BrdU positive cells per cubic mm dentate gyrus (percent change)” value in [7] is on record as “did not significantly change the number of BrdU positive cells”.
For the compound `COC(=O)C(c1ccccc1)C1CCCCN1` (centres unmarked) [methylphenidate], the EC50 in assay [1] (Homo sapiens, Neural stem cell) worked out at 2.2 µM.
Take `NC(=O)C[S+]([O-])C(c1ccccc1)c1ccccc1` (centres unmarked) [modafinil]: the EC50 in [1] (Homo sapiens, Neural stem cell) was 12.5 µM; in assay [2] (agent alone, hNSC), more than 31.6 µM.
Consider `CCOc1cc(N)c(Cl)cc1C(=O)NCC1CN(Cc2ccc(F)cc2)CCO1` (centres unmarked) [mosapride citrate], for which the “lineage of hNSC monolayer in immunofluorescent image” value in assay [4] is given as “primarily of a neuronal lineage”. The 50% effective concentration (EC50) is approximately 15.8 µM in assay [1] (Homo sapiens, Neural stem cell); 10.4 µM in assay [1]; more than 31.6 µM in assay [2] (setting [8]). The entries for the “effect on neuronal differentiation (in words)” value in assay [1] (listed as Mosapride citrate) and in [1] (listed as mosapride) were “significantly promoted neuronal differentiation” and “promote differentiation of neural stem cells into neurons”, respectively. For the same compound, the “effect on astrocyte differentiation (in words)” value in assay [2] (hNSC) is recorded as “did not show a significant effect on astrocyte differentiation”.
Regarding `O=C1CC[C@@]2(O)[C@H]3Cc4ccc(O)c5c4[C@@]2(CCN3CC2CC2)[C@H]1O5` [naltrexone], the EC50 in assay [1] (Homo sapiens, Neural stem cell) came to 0.39 µM.
`Cc1nccn1CC1CCc2c(c3ccccc3n2C)C1=O` (centres unmarked) [ondansetron]: the EC50 in assay [1] (Homo sapiens, Neural stem cell) came out at 23.9 µM. In addition, the “effect on neuronal differentiation (in words)” value in assay [1] is “promote differentiation of neural stem cells into neurons”.
On the same counts, the results for `CNS(=O)(=O)Cc1ccc2[nH]cc(CCN(C)C)c2c1` [sumatriptan] are 14.9 µM and “promotes differentiation of neural stem cells into neurons”.
For `O=C1[C@@H]2[C@H]3CC[C@H](C3)[C@@H]2C(=O)N1CCCCN1CCN(c2ncccn2)CC1` [tandospirone], the EC50 in assay [1] (Homo sapiens, Neural stem cell) was 12.1 µM; in [2] (setting [8]), 8.69 µM.

Source of the values: patent publication US7678808B2, “5 HT receptor mediated neurogenesis” (BrainCells, Inc., priority 2006, dated 2010).
